# Test results taken from patent US20240131199A1, “PH RESPONSIVE CYANINE DYES AND CONJUGATES THEREOF” (BRACCO IMAGING S.P.A., priority 2020, published 2024).
# Like-named read-outs stand apart in the source and are kept apart here.
# Columns and labels:
# [1] = pKa of prior-art pH sensitive cyanine dyes (literature); type: physicochemical; conditions: worked out from literature pKa
# [2] = literature value; cited from earlier work
# [3] = Optical characterization (absorbance, excitation and emission spectra, microplate reader); type: physicochemical; conditions: phosphate buffer; for Abs. Max. / Em. Max.: maximum of the active form
# Procedure: All commercially available reagents used in the synthesis were obtained from Sigma Aldrich and TCI and they were used without further purification. c(RGDfK) was purchased from Apex Bio or Bachem. All the reactions were followed by HPLC (Agilent mod. 1100/1200) and HPLC-MS (Agilent mod. 1260, Quadrupole LC/MSD Mod. 6120) equipped with an absorption detector set at different wavelengths (Column: YMC-Triart Phenyl, 250×4.6 mm/S-5 μm/12 nm). Purifications were performed by flash chromatography on an automated purification system (CombiFlash® Rf+), using pre-packed silica C18 cartridges (Biotage® or Phenomenex) or by preparative HPLC on preparative YMC-Triart Phenyl column. Absorbance, excitation and emission values were assessed in a well plate reader to speed-up the measurements (SPARK).
# Optical characterization was performed for each compound with Spark® multimode microplate reader, registering with specific 96-wells plate the absorbance, excitation and emission spectra of the fluorophore buffered in phosphate buffer at several pH, ranging from 3 to 8.
# In particular, the absorbance, excitation and emission maxima of representative compounds of formula (I) and conjugates of formula (II) are shown in Table III.
# [4] = Residual fluorescence at different pH relative to pH 3; type: physicochemical; conditions: unit assumed; for Em. at pH 5/Em at pH 3: fluorescence at pH 5 relative to maximum at pH 3; for Em. at pH 6/Em at pH 3: fluorescence at pH 6 relative to maximum at pH 3; for Em. at pH 7.5/Em at pH 3: fluorescence at pH 7.5 relative to maximum at pH 3
# Procedure: The ratio of the fluorescence at different pH (5, 6 and 7.5) with respect to the maximum fluorescence collected at pH 3 (highly acidic) was calculated for several representative compounds of the invention and the results are reported in the following Table V. The results were also compared to the values calculated for the non-alkylated Reference Compound A.
# [5] = pK assessment from absorbance/emission versus pH in phosphate buffers; type: physicochemical; conditions: for pKa: phosphate buffers at different pH, inflection point of absorbance vs pH, phosphate buffers, read-out: pKa (by abs)
# Procedure: From the analysis of the variation of the absorbance and emission with respect to the variation of pH, it was possible to calculate the pKa of the dyes of the invention as the inflection point of the interpolated curve.
# All the pH buffers used for the experiment were phosphate based buffers and each pH point has been accurately checked with pH-meter. First the cyanine powder was dissolved in water at ca. 1 mg/mL concentration and then 10 μL of this mother solution were added to 1 ml of phosphate buffers at different pH, previously prepared mixing ortophosphoric acid and sodium hydroxide in the right amount to reach the desired pH. The diluted cyanine buffered solutions were then sampled and transferred into a 96 wells plate (clear for the absorbance measurements and dark for the emission measurements) for the analyses. By plotting for each solution the value of the absorbance at the maximum of the active form, for instance 780 nm for Compound 5, vs. the pH of the solution, a polynomial cubic curve was obtained, whose flex corresponds to the pKa value of the cyanine.
structure (smiles),measurement,setting,value
CC1(C)C(/C=C/C2=C(c3ccc(C(=O)O)cc3)C(=C/C=C3/Nc4ccc(S(=O)(=O)O)cc4C3(C)C)/CCC2)=Nc2ccc(S(=O)(=O)O)cc21 [B],pH at which 95% protonation is achieved,[1],4.2
same,pKa,[2],5.2
CC(CC[N+]1=C(/C=C/C2=C(Cl)C(=C/C=C3/Nc4ccc(S(=O)(=O)O)cc4C3(C)C)/CCC2)C(C)(C)c2cc(C(=O)O)ccc21)S(=O)(=O)[O-] (centres unmarked) [Compound 1],Exc. Max.,[3],783 nm
same,Abs. Max.,[3],784 nm
same,Em. Max.,[3],804 nm
same,Em. at pH 5/Em at pH 3,[4],104%
same,Em. at pH 6/Em at pH 3,[4],55%
same,Em. at pH 7.5/Em at pH 3,[4],9%
same,pKa,[5],6
CC(CC[N+]1=C(/C=C/C2=C(Cl)C(=C/C=C3/Nc4ccc(S(=O)(=O)O)cc4C3(C)C)/CCC2)C(C)(C)c2cc(C(=O)NCC(O)C(O)C(O)C(O)CO)ccc21)S(=O)(=O)[O-] (centres unmarked) [Compound 3],Exc. Max.,[3],780 nm
same,Abs. Max.,[3],782 nm
same,Em. Max.,[3],807 nm
CC1(C)C(/C=C/C2=C(c3ccc(C(=O)NCCS(=O)(=O)O)cc3)C(=C/C=C3/Nc4ccc(S(=O)(=O)O)cc4C3(C)C)/CCC2)=[N+](CCCCCC(=O)O)c2ccc(S(=O)(=O)[O-])cc21 [Compound 4],pKa,[5],6.4
CC1(C)C(/C=C/C2=C(Cl)C(=C/C=C3/Nc4ccc(S(=O)(=O)O)cc4C3(C)C)/CCC2)=[N+](CCCCCC(=O)O)c2ccc(S(=O)(=O)[O-])cc21 [Compound 5],pKa (from emission vs pH),"[5]; emission at 804 nm vs pH, second source of data",same value of pKa
same,pKa,[5],5.9
CC1(C)C(/C=C/C2=C(Cl)C(=C/C=C3/Nc4ccc(S(=O)(=O)[O-])cc4C3(C)C)/CCC2)=[N+](CCCCCC(=O)O)c2ccc(C(=O)NCC(O)C(O)C(O)C(O)CO)cc21 (centres unmarked) [Compound 6],pKa,[5],6
CC1(C)C(/C=C/C2=C(Cl)C(=C/C=C3/N(CCCCCC(=O)O)c4ccc(C(=O)NCC(O)C(O)C(O)C(O)CO)cc4C3(C)C)/CCC2)=Nc2ccc(C(=O)NCC(O)C(O)C(O)C(O)CO)cc21 (centres unmarked) [Compound 7],pKa,[5],6.1
CC1(C)C(/C=C/C=C/C=C/C=C2/Nc3ccc(S(=O)(=O)O)cc3C2(C)C)=[N+](CCCCCC(=O)O)c2ccc(S(=O)(=O)O)cc21 [Compound 8],Exc. Max.,[3],740 nm
same,Abs. Max.,[3],742 nm
same,Em. Max.,[3],777 nm
same,Em. at pH 5/Em at pH 3,[4],96%
same,Em. at pH 6/Em at pH 3,[4],66%
same,Em. at pH 7.5/Em at pH 3,[4],10%
same,pKa,[5],6
CC1(C)C(/C=C/C(Cl)=C/C=C2/N(CCCCCC(=O)O)c3ccc4c(S(=O)(=O)O)cc(S(=O)(=O)O)cc4c3C2(C)C)=Nc2ccc3c(S(=O)(=O)O)cc(S(=O)(=O)O)cc3c21 [Compound 9],pKa,[5],6.7
CC1(C)C(/C=C/C2=C(Cl)C(=C/C=C3/Nc4ccc(S(=O)(=O)O)cc4C3(C)C)/CCC2)=[N+](CCCCCC(=O)NCCCCC2NC(=O)[C@@H](Cc3ccccc3)NC(=O)[C@H](CC(=O)O)NC(=O)CNC(=O)[C@H](CCCNC(=N)N)NC2=O)c2ccc(S(=O)(=O)[O-])cc21 (some centres unmarked) [Compound 10],pKa,[5],5.8
CC1(C)C(/C=C/C2=C(Cl)C(=C/C=C3/Nc4ccc(S(=O)(=O)O)cc4C3(C)C)/CCC2)=[N+](CCCCCC(=O)NCCCCC2NC(=O)[C@@H](Cc3ccccc3)NC(=O)[C@H](CC(=O)O)NC(=O)CNC(=O)[C@H](CCCNC(=N)N)NC2=O)c2ccc(C(=O)NCC(O)C(O)C(O)C(O)CO)cc21 (some centres unmarked) [Compound 11],pKa,[5],6.3
CC1(C)C(/C=C/C2=C(Cl)C(=C/C=C3/Nc4ccc(C(=O)NCC(O)C(O)C(O)C(O)CO)cc4C3(C)C)/CCC2)=[N+](CCCCCC(=O)NCCCCC2NC(=O)[C@@H](Cc3ccccc3)NC(=O)[C@H](CC(=O)O)NC(=O)CNC(=O)[C@H](CCCNC(=N)N)NC2=O)c2ccc(C(=O)NCC(O)C(O)C(O)C(O)CO)cc21 (some centres unmarked) [Compound 12],Exc. Max.,[3],790 nm
same,Abs. Max.,[3],793 nm
same,Em. Max.,[3],814 nm
CC1(C)C(/C=C/C=C/C=C2/Nc3ccc(S(=O)(=O)O)cc3C2(C)CCCCCC(=O)O)=[N+](CCCCS(=O)(=O)O)c2ccc(S(=O)(=O)O)cc21 (centres unmarked) [CypHer5E],pKa,[2],~7.3
"CC1(C)C(/C=C/C2=C(Cl)C(=C/C=C3/Nc4ccc(S(=O)(=O)O)cc4C3(C)C)/CCC2)=Nc2ccc(S(=O)(=O)O)cc21 [Reference Compound A, reference compound]",Em. at pH 5/Em at pH 3,[4],40%
same,Em. at pH 6/Em at pH 3,[4],10%
same,Em. at pH 7.5/Em at pH 3,[4],1%
same,pH at which 95% protonation is achieved,[1],3.7
same,pKa,[5],4.6
same,pKa,[2],4.7
CC[N+]1=C(/C=C/C=C/C=C2/Nc3ccc(CC(=O)O)cc3C2(C)C)C(C)(C)c2cc(S(=O)(=O)[O-])ccc21 [pentamethine cyanine dye],pKa,[2],7.5
